In publication PMC8587515, “Cytotoxic and Anti-Inflammatory Activities of Dihydroisocoumarin and Xanthone Derivatives from Garcinia picrorhiza” (Molecules, 2021):

Experiments:
[1] = system: HeLa S3 (human cervical carcinoma); experiment: MTT cytotoxic activity assay, HeLa S3; type: cell-based; conditions: 72 h, mean ± SEM of three replicates
Method: (§1) The cytotoxic activity of the isolated compounds was evaluated using the MTT viability assay with doxorubicin as the positive control and the results are presented in Table 2.
(§2) The MTT colorimetric method was performed to evaluate cytotoxic activity of the isolated compounds against human epidermoid carcinoma (KB; ATCC CCL17), human cervical carcinoma (HeLa S3; ATCC CCL2-2), human colon adenocarcinoma (HT-29; ATCC HTB-38), human breast adenocarcinoma (MCF-7; ATCC HTB-22), and human hepatocellular carcinoma (Hep G2; ATCC HB-8065) cell lines according to the previous method. The cancer cells were cultured in MEM containing 10% fetal bovine serum in the presence of 100 U/mL penicillin and 100 μg/mL streptomycin sulphate (Gibco, Rockville, MD, USA), seeded in a 96-well plate (3000 cells/well), and pre-incubated at 37 °C for 24 h in a 5% CO2 humidified atmosphere. The tested compounds with serial concentrations (0.3–100 μM) were added and incubated for a further 72 h in the same condition. At the end of treatment, 20 µL of MTT solution (5 mg/mL in PBS, Sigma, St. Louis, MI, USA) was added to each well and further incubated for 3 h. After centrifugation at 1400 rpm for 5 min at 4 °C, the supernatant was decanted and DMSO (100 µL/well) was added to allow formazan product solubilization, which was subsequently measured by a microplate reader (Tecan Trading AG, Switzerland) at wavelength 550 nm. Control cells were treated with 0.1% DMSO. Doxorubicin (tested concentrations: 0.01–3.0 μM, Sigma) was used as the positive control. The results are expressed as the mean values of three replicates for three independent experiments. IC50 values were determined by graphical analysis using SigmaPlot 10 (Systat Software Inc., San Jose, CA, USA), obtained by plotting the cell viability percentage versus sample concentration.

[2] = system: Hep G2 (human hepatocellular carcinoma); experiment: MTT cytotoxic activity assay, Hep G2; type: cell-based; conditions: HepG2, 72 h, mean ± SEM of three replicates
Method: as §1
(§3) The MTT colorimetric method was performed to evaluate cytotoxic activity of the isolated compounds against human epidermoid carcinoma (KB; ATCC CCL17), human cervical carcinoma (HeLa S3; ATCC CCL2-2), human colon adenocarcinoma (HT-29; ATCC HTB-38), human breast adenocarcinoma (MCF-7; ATCC HTB-22), and human hepatocellular carcinoma (Hep G2; ATCC HB-8065) cell lines according to the previous method. […] After centrifugation at 1400 rpm for 5 min at 4 °C, the supernatant was decanted and DMSO (100 µL/well) was added to allow formazan product solubilization, which was subsequently measured by a microplate reader (Tecan Trading AG, Switzerland) at wavelength 550 nm. […] The results are expressed as the mean values of three replicates for three independent experiments. IC50 values were determined by graphical analysis using SigmaPlot 10 (Systat Software Inc., San Jose, CA, USA), obtained by plotting the cell viability percentage versus sample concentration.

[3] = system: KB (human epidermoid carcinoma); experiment: MTT cytotoxic activity assay, KB; type: cell-based; conditions: 72 h, mean ± SEM of three replicates
Method: as §1, §2

[4] = system: HT-29 (human colon adenocarcinoma); experiment: MTT cytotoxic activity assay, HT-29; type: cell-based; conditions: 72 h, mean ± SEM of three replicates
Method: as §1, §3

[5] = system: MCF-7 (human breast adenocarcinoma); experiment: MTT cytotoxic activity assay, MCF-7; type: cell-based; conditions: MCF7, 72 h, mean ± SEM of three replicates
Method: as §1, §3

[6] = target: T1, COX-1 (purified PGHS-1 from ram seminal vesicles) (Ovis aries, UniProt P05979); set-up: method as in PMID 32627543; conditions: at 20 µM; cited from earlier work
T1 construct: Purified PGHS-1 from ram seminal vesicles for COX-1; purchased Cayman Chemical Co., Ann Arbor, MI, USA; host or cells: ram seminal vesicles (tissue-purified)
T1 sequence (P05979 25-600): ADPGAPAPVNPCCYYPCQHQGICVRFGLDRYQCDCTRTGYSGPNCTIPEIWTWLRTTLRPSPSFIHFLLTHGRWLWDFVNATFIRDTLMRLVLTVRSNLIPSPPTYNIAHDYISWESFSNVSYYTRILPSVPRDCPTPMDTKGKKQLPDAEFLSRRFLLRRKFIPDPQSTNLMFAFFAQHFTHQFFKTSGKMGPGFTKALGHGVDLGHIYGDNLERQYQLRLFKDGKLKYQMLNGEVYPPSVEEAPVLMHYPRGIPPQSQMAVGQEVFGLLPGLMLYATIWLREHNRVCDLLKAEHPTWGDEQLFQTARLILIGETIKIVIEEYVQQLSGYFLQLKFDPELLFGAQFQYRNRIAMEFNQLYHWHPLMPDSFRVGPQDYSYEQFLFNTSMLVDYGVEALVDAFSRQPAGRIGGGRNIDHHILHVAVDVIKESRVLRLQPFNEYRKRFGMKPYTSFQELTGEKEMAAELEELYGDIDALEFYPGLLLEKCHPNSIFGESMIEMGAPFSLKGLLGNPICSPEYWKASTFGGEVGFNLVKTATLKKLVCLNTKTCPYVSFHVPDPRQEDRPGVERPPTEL

Q: Which IC50 [1] does the source give for `COc1cccc2c1C(=O)c1c(O)c3c(c(O)c1C2=O)C[C@@](O)(C(=O)CO)C[C@@H]3O[C@H]1C[C@H](N)[C@H](O)[C@H](C)O1` [Doxorubicin, reference compound] here?
A: 150 ± 20 nM

Q: And the IC50 [2]?
A: 1000 ± 170 nM

Q: What about the IC50 [3] of the same compound?
A: 20 ± 10 nM

Q: What about the IC50 [4] of the same compound?
A: 590 ± 30 nM

Q: What about the IC50 [5] of the same compound?
A: 1290 ± 20 nM

Q: For `C=C(C)[C@H]1C[C@@H](C[C@@]23C[C@@H](/C=C/C(C)C)C(C)(C)[C@@](CC=C(C)C)(C2=O)c2oc4cc(O)c(O)cc4c(=O)c2C3=O)C1(C)C` [picrorhizone H], which “COX-1 inhibitory activity, % inhibition” value [6] is on record?
A: 35.2 ± 9.6%
